From article PMC12105006, “AI-Driven De Novo Design and Development of Nontoxic DYRK1A Inhibitors” (Journal of Medicinal Chemistry, 2025)
“Also recorded” adds a separate entry of the source. Where two headings read alike, the source gives them in different places.

Assays:
Human DYRK1A Kinase = Human DYRK1A Kinase (Homo sapiens, UniProt Q13627); experiment: ADP-Glo DYRK1A kinase enzyme inhibition assay; conditions: for IC50: read-out: IC50 (nM) DYRK1A, ATP (10 μmol/well) and DYRKtidE (4 μmol/well) as substrate, triplicate
[1] = Oxygen radical absorbance capacity (ORAC) antioxidant assay
DYRK1B = DYRK1B (Homo sapiens, UniProt Q9Y463); experiment: ADP-Glo DYRK1B kinase enzyme inhibition assay; conditions: read-out: IC50 (nM) DYRK1B; ATP (10 μmol/well) and DYRKtidE (4 μmol/well) as substrate; triplicate
PAMPA-BBB assay = type: in vitro ADME; conditions: for BBB prediction: PAMPA-BBB, porcine brain lipid, 3 h, 25 °C
Protocol: The brain penetration of active compounds was assessed using a parallel artificial membrane permeability assay (PAMPA). Eleven drugs with known blood–brain barrier (BBB) permeability–Hydrocortisone, testosterone, imipramine, piroxicam, promazine, clonidine, desipramine, ofloxacin, aldosterone, verapamil, and caffeine–were included in each experiment to validate the analysis.
The compounds were dissolved in a 70/30 PBS pH = 7.4 buffer/ethanol solution at a concentration that ensured appropriate absorbance values in the UV–vis light spectrum. A 5 mL volume of these solutions was filtered using PDVF membrane filters (30 mm diameter, 0.45 μ m pore size).
The acceptor 96-well microplate (MultiScreen 96-well Culture Tray clear, Merck Millipore) was filled with 200 μL of PBS/ethanol (70/30). The donor 96-well filtrate plate (Multiscreen IP Sterile Plate PDVF membrane, 0.45 μ m pore size, Merck Millipore) was coated with 4 μL of porcine brain lipid (Spectra 2000) in dodecane (20 mg mL^–1).
After 5 min, 200 μL of each compound solution were added. The donor plate was then carefully placed onto the acceptor plate to form a “sandwich,” which was left undisturbed for 3 h at 25 °C. During this time, the compounds diffused from the donor plate through the brain lipid membrane into the acceptor plate.
After incubation, the donor plate was removed. The concentrations of the compounds and commercial drugs were determined by measuring absorbance in the donor wells (before incubation) and the acceptor wells (after incubation) using a CLARIOstar microplate reader (BMG LABTECH). Each sample was analyzed at five wavelengths in four replicates and two independent experiments.
The permeability coefficient (P e) of each drug, in centimeters per second, was calculated using the following formula Pe=Vd·Vr/(Vd−Vr)·s·t·100·Vd/100·Vd−%T(Vd−Vr) %T=Vr·Ar/Ad·Vd·100 where V d and V r are the volumes of the donor and receptor solutions (0.2 cm^3), s is the membrane area (0.2642 cm^2), t is the incubation time (3 h = 10,800 s), A r is the absorbance of the receptor plate after the experiment, and A d is the absorbance in the donor compartment before incubation. The results obtained for quality control drugs were compared with permeability data from the literature. […] Compounds that correlate with reported P e values between 2 and 4 × 10^–6 cm s^–1 are classified as CNS+/–.

BV2 microglial cells = experiment: MTT cell viability / toxicity in BV2 cells; type: cell-based, mouse
Protocol: (§1) The mouse microglial BV2 cell line was propagated using DMEM, 10% FBS, 1% streptomycin–penicillin, under humidified 5% CO2 and 95% air. On attaining semiconfluence, cells were treated with 400 ng/mL of LPS for 24 h. Some cultures were pretreated for 1 h with the different compounds at several concentrations ranging from 1 to 10 μM. After treatment, cultures were processed for cell viability and nitrite production. Experiments were performed in triplicate. BV2 cells, microglial cells derived from C57/BL6 murine. These cells were immortalized using the v-raf/v-myc carrying J2 retrovirus, resulting in a stable cell line. The cells are commercially available from https://www.cytion.com/BV2-Cells/305156.
Cell viability was determined using the MTT assay, which measures the reduction of 3-(4,5-dimethylthiazol-2-yl)-2,5-diphenyltetrazolium bromide (MTT) to formazan crystals. Briefly, the MTT solution (2 mg/mL) was added to each well and incubated at 37 °C for 2 h. After removing the culture medium, 100 μL of dimethyl sulfoxide was added to each well to dissolve the formazan. The optical density was measured at 532 nm using a microplate reader. The absorbance of the control group was considered as 100% of the cell viability.

[2] = system: LPS-induced NO production in BV2 microglial cells; experiment: LPS-induced nitrite (NO) production, Griess reaction; type: cell-based, mouse; conditions: for dose-dependent inhibition of LPS-induced NO production: decreasing concentrations (Figures S17, S18); for LPS-induced NO production: maximum dose 5 μM (1, 5, 8, 9) or 10 μM (6, 7, 10, 11), LPS 24 h, 1 h pretreatment
Protocol: as §1
The assessment of NO production involved quantifying nitrite levels, one of the end products of NO oxidation, through a procedure based on the diazotization of nitrite by sulfanilic acid (Griess reaction). Upon reaching semiconfluence, cells were exposed to 400 ng/mL of LPS for 24 h. Before this, certain cultures were pretreated with various compounds at concentrations ranging from 0.5 to 10 μM. Following a 24-h incubation period, 50 μL aliquots of the samples were combined with 50 μL of Griess reagent in 96-well plates, and the mixture was allowed to incubate at room temperature for 10 min. The absorbance of the resulting mixture was then measured at 520 nm using a microplate reader.

[3] = phosphate buffer pH 7.4, fluorescein/AAPH

Chain of DYRK1B (Q9Y463 whole entry): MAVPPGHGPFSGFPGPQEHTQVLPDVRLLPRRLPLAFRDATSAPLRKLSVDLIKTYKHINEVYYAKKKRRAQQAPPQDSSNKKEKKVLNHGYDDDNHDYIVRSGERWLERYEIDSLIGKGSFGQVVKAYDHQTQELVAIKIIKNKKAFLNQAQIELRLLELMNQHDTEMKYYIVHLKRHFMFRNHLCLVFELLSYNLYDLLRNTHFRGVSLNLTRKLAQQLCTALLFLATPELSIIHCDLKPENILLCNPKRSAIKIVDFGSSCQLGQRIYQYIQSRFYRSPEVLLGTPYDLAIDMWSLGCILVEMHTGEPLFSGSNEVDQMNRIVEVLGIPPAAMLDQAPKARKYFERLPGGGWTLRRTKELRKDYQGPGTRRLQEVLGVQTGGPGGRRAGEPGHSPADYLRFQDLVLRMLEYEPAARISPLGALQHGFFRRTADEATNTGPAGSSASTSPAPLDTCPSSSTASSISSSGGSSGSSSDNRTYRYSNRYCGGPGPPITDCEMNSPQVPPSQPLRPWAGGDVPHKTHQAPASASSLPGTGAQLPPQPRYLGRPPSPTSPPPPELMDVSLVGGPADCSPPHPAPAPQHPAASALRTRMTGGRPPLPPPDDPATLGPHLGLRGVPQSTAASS

IC50 (Human DYRK1A Kinase) [nM] | IC50 (DYRK1B) [nM] | ability to cross the blood–brain barrier by passive permeation (PAMPA-BBB assay; PAMPA) | SMILES | ORAC [1] | ORAC values [1] | ORAC [1, 3] | BBB prediction (PAMPA-BBB assay) | toxicity (MTT assay) (BV2 microglial cells; concentrations up to 10 μM) | DYRK1A activity / IC50 values (Human DYRK1A Kinase) | dose-dependent inhibition of LPS-induced NO production [2] | toxicity (MTT assay) (BV2 microglial cells; at 5 μM) | toxicity (MTT assay) (BV2 microglial cells; at 10 μM) | LPS-induced NO production [2]
165 ± 17 | 165 ± 30 |  | COc1cc(-c2c[nH]c3ncc(-c4cnn(C5CCNCC5)c4)cc23)c(F)cc1C [Compound 11, 3-(2-Fluoro-5-methoxy-4-methylphenyl)-5-(1-(piperidin-4-yl)-1H-pyrazol-4-yl)-1H-pyrrolo[2,3-b]pyridine] | 1.20 ± 0.1 |  | 1.2 ± 0.1 μmol of trolox equivalents/μmol of tested compound | CNS+ (CNS+, correlating with a bibliographic P e > 4) | nontoxic |  |  |  |  | 
 | 577 ± 49 |  | CN1CCC(n2cc(-c3cnc4[nH]cc(-c5cc(Cl)cc(Cl)c5)c4c3)cn2)CC1 [Compound 6, 3-(3,5-Dichlorophenyl)-5-(1-(1-methylpiperidin-4-yl)-1H-pyrazol-4-yl)-1H-py-rrolo[2,3-b]pyridine] |  | around 0.5 trolox equivalents |  | CNS+ (CNS+, correlating with a bibliographic P e > 4) | nontoxic |  |  |  |  | 
48 ± 3 | 70 ± 5 |  | Fc1cccc(-c2c[nH]c3ncc(-c4cnn(C5CCNCC5)c4)cc23)c1 [Compound 8, 3-(3-Fluorophenyl)-5-(1-(piperidin-4-yl)-1H-pyrazol-4-yl)-1H-pyrrolo[2,3-b]py-ridine] | 1.0 ± 0.1 |  | 1.0 ± 0.1 μmol of trolox equivalents/μmol of tested compound | CNS+ (CNS+, correlating with a bibliographic P e > 4) |  | comparable to the reference compound, harmine | particularly strong | nontoxic | exhibited toxicity | most pronounced effects

The next lines start with the compound.

SMILES | IC50 (Human DYRK1A Kinase) [nM] | IC50 (DYRK1B) [nM] | ability to cross the blood–brain barrier by passive permeation (PAMPA-BBB assay; PAMPA) | ORAC [1] | ORAC values [1] | ORAC [1, 3] | BBB prediction (PAMPA-BBB assay) | toxicity (MTT assay) (BV2 microglial cells; concentrations up to 10 μM) | DYRK1A activity / IC50 values (Human DYRK1A Kinase) | dose-dependent inhibition of LPS-induced NO production [2] | toxicity (MTT assay) (BV2 microglial cells; at 5 μM) | toxicity (MTT assay) (BV2 microglial cells; at 10 μM) | LPS-induced NO production [2]
Clc1cc(Cl)cc(-c2c[nH]c3ncc(-c4cnn(C5CCNCC5)c4)cc23)c1 [Compound 10, 3-(3,5-Dichlorophenyl)-5-(1-(piperidin-4-yl)-1H-pyrazol-4-yl)-1H-pyrrolo[2,3-b]pyridine] | 450 ± 18 | 566 ± 61 | in the limit of a positive prediction | 0.55 ± 0.07 | around 0.5 trolox equivalents | 0.55 ± 0.07 μmol of trolox equivalents/μmol of tested compound | CNS+/– (Compounds that correlate with reported P e values between 2 and 4 × 10^–6 cm s^–1 are classified as CNS+/–) | nontoxic |  |  |  |  | 
COc1cccc(-c2c[nH]c3ncc(-c4cnn(C5CCNCC5)c4)cc23)c1 [Compound 9, 3-(3-Methoxyphenyl)-5-(1-(piperidin-4-yl)-1H-pyrazol-4-yl)-1H-pyrrolo[2,3-b]pyridine] | 81 ± 4 | 109 ± 8 |  | 1.3 ± 0.1 |  | 1.3 ± 0.1 μmol of trolox equivalents/μmol of tested compound | CNS+ (CNS+, correlating with a bibliographic P e > 4) |  | comparable to the reference compound, harmine | particularly strong | nontoxic | exhibited toxicity | 
COc1cc(-c2c[nH]c3ncc(-c4cnn(C5CCN(C)CC5)c4)cc23)c(F)cc1C [Compound 7, 3-(2-Fluoro-5-methoxy-4-methylphenyl)-5-(1-(1-methylpiperidin-4-yl)-1H-py-razol-4-yl)-1H-pyrrolo[2,3-b]pyridine] |  | 174 ± 31 |  | 1.3 ± 0.1 |  | 1.3 ± 0.1 μmol of trolox equivalents/μmol of tested compound | CNS+ (CNS+, correlating with a bibliographic P e > 4) | nontoxic |  |  |  |  | 
COc1cccc(-c2c[nH]c3ncc(-c4cnn(C5CCN(C)CC5)c4)cc23)c1 [Compound 5, 3-(3-Methoxyphenyl)-5-(1-(1-methylpiperidin-4-yl)-1H-pyrazol-4-yl)-1H-pyrro-lo[2,3-b]pyridine] | 79 ± 5 | 119 ± 11 |  | 1.25 ± 0.07 |  | 1.25 ± 0.07 μmol of trolox equivalents/μmol of tested compound | CNS+ (CNS+, correlating with a bibliographic P e > 4) |  | comparable to the reference compound, harmine | particularly strong | nontoxic | exhibited toxicity | 
CN1CCC(n2cc(-c3cnc4[nH]cc(-c5cccc(F)c5)c4c3)cn2)CC1 [Compound 1, 3-(3-fluorophenyl)-5-(1-(1-methylpiperidin-4-yl)-1H-pyrazol-4-yl)-1H-pyrrolo[2,3-b]pyridine] | 41 ± 3 | 78 ± 3 |  | 1.02 ± 0.03 |  | 1.02 ± 0.03 μmol of trolox equivalents/μmol of tested compound | CNS+ (CNS+, correlating with a bibliographic P e > 4) |  | activity at the nanomolar level; also recorded: comparable to the reference compound, harmine | particularly strong | nontoxic | exhibited toxicity | most pronounced effects
